Source: ChEMBL document CHEMBL5518227, “Discovery of JNJ-1802, a First-in-Class Pan-Serotype Dengue Virus NS4B Inhibitor” (J Med Chem, 2024)

Columns and labels:
[1] = target: Voltage-gated inwardly rectifying potassium channel KCNH2 (Homo sapiens, UniProt Q12809); assay: Inhibition of human ERG stably expressed in CHO cells by automated Qpatch electrophysiological assay; type: toxicity, cell-based
[2] = Metabolic stability in human hepatocytes assessed as intrinsic clearance measured per million cells incubated upto 120 mins by LC-MS/MS analysis; type: ADME, cell-based, Hepatocyte; details: read-out: CLH
[3] = Distribution coefficient between 1-Octanol and aqueous phosphate buffer, logD of the compound at pH 7.4 by shake flask method; type: physicochemical; details: 1-octanol/aqueous phosphate buffer
[4] = Plasma protein binding in human at 5 uM measured after 24 hrs by LC-MS/MS analysis; type: ADME, cell-free; details: read-out: PPB (converted)
[5] = Metabolic stability in dog hepatocytes assessed as intrinsic clearance measured per million cells incubated upto 120 mins by LC-MS/MS analysis; type: ADME, cell-based, Canis lupus familiaris, Hepatocyte; details: read-out: CLH
[6] = Clearance in overnight fasted Beagle dog at 0.51 mg/kg, iv measured upto 24 hrs by LC-MS/MS analysis; type: ADME, organism-based, Canis lupus familiaris; details: in vivo
[7] = AUC in 8 hrs fasted cynomolgus monkey assessed as liver blood flow at 3 mg/kg, po measured upto 24 hrs by LC-MS/MS analysis; type: ADME, organism-based, Macaca fascicularis; details: in vivo
[8] = AUC in overnight fasted Beagle dog at 2.37 mg/kg, po measured upto 24 hrs by LC-MS/MS analysis; type: ADME, organism-based, Canis lupus familiaris; details: in vivo
[9] = system: dengue virus type 3; assay: Antiviral activity against DENV-3 H87 infected in african green monkey Vero cells incubated for 24 hrs measured after 3 days post infection by RT-PCR analysis; type: functional, organism-based; details: Dengue virus, H87, Vero; read-out: EC50
[10] = Oral bioavailability in CD-1 mouse at 10 mg/kg measured upto 24 hrs by LC-MS/MS analysis; type: ADME, organism-based; details: in vivo
[11] = Thermodynamic solubility of the compound in aqueous buffer at pH 7.4 measured after 24 hrs by UPLC analysis; type: physicochemical; details: read-out: Therm_solubility
[12] = target: T1, Cytochrome P450 2C8 (Homo sapiens, UniProt P10632); assay: Inhibition of human CYP2C8 preincubated for 5 mins followed by NADPH addition measured after 5 to 30 mins by LC-MS analysis; type: ADME
T1 sequence (P10632 whole entry): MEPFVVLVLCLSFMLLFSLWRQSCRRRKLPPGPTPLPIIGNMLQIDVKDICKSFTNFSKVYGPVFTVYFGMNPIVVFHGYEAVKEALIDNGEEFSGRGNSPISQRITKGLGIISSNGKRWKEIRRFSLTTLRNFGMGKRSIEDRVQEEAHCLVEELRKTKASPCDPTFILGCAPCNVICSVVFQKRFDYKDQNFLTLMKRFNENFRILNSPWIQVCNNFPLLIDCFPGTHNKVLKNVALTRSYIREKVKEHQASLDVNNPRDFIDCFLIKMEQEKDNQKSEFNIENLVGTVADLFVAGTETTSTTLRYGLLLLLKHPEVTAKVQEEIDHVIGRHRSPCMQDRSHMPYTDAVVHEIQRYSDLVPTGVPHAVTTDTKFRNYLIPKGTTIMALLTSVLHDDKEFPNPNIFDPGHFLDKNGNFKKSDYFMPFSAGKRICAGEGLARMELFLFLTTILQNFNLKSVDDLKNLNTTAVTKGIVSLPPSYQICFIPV

[13] = system: dengue virus type 4; assay: Antiviral activity against DENV-4 H241 infected in african green monkey Vero cells incubated for 24 hrs measured after 3 days post infection by RT-PCR analysis; type: functional, organism-based
[14] = Volume of distribution at steady state in overnight fasted Beagle dog at 0.51 mg/kg, iv measured upto 24 hrs by LC-MS/MS analysis; type: ADME, organism-based, Canis lupus familiaris; details: in vivo, read-out: Vdss
[15] = Volume of distribution at steady state in 8 hrs fasted cynomolgus monkey […] at 1 mg/kg, iv measured upto 24 hrs by LC-MS/MS analysis; type: ADME, organism-based, Macaca fascicularis; details: in vivo, read-out: Vdss
[16] = Mutagenicity in Salmonella typhimurium TA7002 in presence or absence of S9 fraction pretreated for 90 mins measured after 48 hrs in dark by AMES test; type: toxicity; details: salmonella enterica subsp. enterica serovar typhimurium, s9, 49.5 h; time 2970 min
[17] = Mutagenicity in Salmonella typhimurium TA7004 in presence or absence of S9 fraction pretreated for 90 mins measured after 48 hrs in dark by AMES test; type: toxicity; details: salmonella enterica subsp. enterica serovar typhimurium, s9, 49.5 h; time 2970 min
[18] = AUC in Sprague-Dawley rat at 10 mg/kg, po measured after 24 to 48 hrs by LC-MS/MS analysis; type: ADME, organism-based; details: in vivo, time 24-48 hrs
[19] = Mutagenicity in Salmonella typhimurium TA7006 in presence or absence of S9 fraction pretreated for 90 mins measured after 48 hrs in dark by AMES test; type: toxicity; details: salmonella enterica subsp. enterica serovar typhimurium, s9, 49.5 h; time 2970 min
[20] = target: T2, Cytochrome P450 1A2 (Homo sapiens, UniProt P05177); assay: Inhibition of human CYP1A2 preincubated for 5 mins followed by NADPH addition measured after 5 to 30 mins by LC-MS analysis; type: ADME
T2 sequence (P05177 whole entry): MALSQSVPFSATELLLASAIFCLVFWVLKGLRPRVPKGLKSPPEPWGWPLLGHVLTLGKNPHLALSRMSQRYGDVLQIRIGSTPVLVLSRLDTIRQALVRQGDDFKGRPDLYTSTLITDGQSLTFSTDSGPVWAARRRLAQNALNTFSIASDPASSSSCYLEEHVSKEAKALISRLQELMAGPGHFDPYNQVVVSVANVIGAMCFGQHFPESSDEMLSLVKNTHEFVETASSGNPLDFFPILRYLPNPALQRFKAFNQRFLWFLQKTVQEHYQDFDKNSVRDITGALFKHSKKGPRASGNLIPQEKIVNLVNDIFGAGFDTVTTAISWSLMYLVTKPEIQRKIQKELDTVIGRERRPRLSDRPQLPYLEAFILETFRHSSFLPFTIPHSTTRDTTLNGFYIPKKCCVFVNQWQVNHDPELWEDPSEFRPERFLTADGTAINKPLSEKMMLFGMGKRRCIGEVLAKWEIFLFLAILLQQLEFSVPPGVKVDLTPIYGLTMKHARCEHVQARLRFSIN

[21] = Elimination half life in Sprague-Dawley rat at 2.5 mg/kg, iv measured after 24 hrs by LC-MS/MS analysis; type: ADME, organism-based; details: in vivo, read-out: beta t1/2 (converted)
[22] = Cytotoxicity against african green monkey Vero cells by ATPlite cell viability luminescence assay; type: toxicity, cell-based; details: chlorocebus sabaeus
[23] = Clearance in 8 hrs fasted cynomolgus monkey assessed as liver blood flow at 1 mg/kg, iv measured upto 24 hrs by LC-MS/MS analysis; type: ADME, organism-based, Macaca fascicularis; details: in vivo
[24] = system: dengue virus type 2; assay: Antiviral activity against DENV-2 16681 expressing eGFP infected in african green monkey Vero cells incubated with cells for 24 hrs followed by viral infection measured after 3 days by laser microscopic analysis; type: functional, organism-based; details: Dengue virus, 16681, Vero
[25] = target: Cytochrome P450 2C19 (Homo sapiens, UniProt P33261); assay: Inhibition of human CYP2C19 preincubated for 5 mins followed by NADPH addition measured after 5 to 30 mins by LC-MS analysis; type: ADME
[26] = Clearance in CD-1 mouse assessed as liver blood flow at 2.5 mg/kg, iv measured upto 24 hrs by LC-MS/MS analysis; type: ADME, organism-based; details: in vivo
[27] = Elimination half life in overnight fasted Beagle dog at 0.51 mg/kg, iv measured upto 24 hrs by LC-MS/MS analysis; type: ADME, organism-based, Canis lupus familiaris; details: in vivo, read-out: beta t1/2 (converted)

Sequence of Voltage-gated inwardly rectifying potassium channel KCNH2 (Q12809 whole entry): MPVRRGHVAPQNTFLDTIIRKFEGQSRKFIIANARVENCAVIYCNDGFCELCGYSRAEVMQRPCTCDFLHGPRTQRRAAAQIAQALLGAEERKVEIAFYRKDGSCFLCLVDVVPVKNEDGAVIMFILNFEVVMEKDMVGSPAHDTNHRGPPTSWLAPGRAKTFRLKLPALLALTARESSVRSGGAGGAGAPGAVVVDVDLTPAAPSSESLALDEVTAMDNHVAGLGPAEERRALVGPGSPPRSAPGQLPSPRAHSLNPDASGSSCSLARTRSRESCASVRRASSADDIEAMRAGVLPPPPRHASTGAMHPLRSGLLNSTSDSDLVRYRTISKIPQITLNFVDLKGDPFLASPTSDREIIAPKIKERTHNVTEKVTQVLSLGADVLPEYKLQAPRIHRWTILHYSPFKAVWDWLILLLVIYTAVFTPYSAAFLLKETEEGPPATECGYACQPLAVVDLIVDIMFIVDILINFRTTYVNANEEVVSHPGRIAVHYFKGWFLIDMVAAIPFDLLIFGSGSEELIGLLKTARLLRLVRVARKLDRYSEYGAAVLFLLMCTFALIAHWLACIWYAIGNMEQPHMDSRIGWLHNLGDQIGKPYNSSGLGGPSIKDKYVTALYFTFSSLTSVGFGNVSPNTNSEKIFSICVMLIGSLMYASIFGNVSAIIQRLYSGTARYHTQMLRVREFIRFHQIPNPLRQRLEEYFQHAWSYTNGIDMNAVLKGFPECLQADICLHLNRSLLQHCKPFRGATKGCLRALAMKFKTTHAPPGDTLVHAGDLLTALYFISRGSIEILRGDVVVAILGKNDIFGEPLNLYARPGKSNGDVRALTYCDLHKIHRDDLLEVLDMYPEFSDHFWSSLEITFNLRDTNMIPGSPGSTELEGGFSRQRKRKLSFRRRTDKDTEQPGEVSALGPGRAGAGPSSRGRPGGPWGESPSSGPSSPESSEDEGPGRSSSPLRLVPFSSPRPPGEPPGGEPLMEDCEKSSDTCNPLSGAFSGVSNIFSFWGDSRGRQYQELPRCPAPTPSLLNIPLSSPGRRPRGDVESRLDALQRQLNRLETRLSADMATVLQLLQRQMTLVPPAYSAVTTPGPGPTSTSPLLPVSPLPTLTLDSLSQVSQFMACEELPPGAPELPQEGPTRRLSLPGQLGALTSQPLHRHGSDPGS
Sequence of Cytochrome P450 2C19 (P33261 whole entry): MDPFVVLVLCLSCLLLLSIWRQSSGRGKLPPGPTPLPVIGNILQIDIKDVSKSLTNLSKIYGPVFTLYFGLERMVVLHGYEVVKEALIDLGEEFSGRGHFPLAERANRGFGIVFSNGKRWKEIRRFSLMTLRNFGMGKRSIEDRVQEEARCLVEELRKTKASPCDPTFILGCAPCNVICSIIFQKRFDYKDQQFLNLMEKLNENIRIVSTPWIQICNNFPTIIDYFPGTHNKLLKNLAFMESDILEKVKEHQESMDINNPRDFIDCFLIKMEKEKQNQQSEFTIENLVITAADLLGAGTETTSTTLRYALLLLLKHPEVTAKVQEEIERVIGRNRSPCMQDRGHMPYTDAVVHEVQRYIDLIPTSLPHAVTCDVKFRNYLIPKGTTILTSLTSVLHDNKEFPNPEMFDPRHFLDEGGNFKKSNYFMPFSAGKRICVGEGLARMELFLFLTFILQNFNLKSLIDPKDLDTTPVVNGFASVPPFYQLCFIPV

COc1cc(N[C@H](C(=O)c2c[nH]c3ccc(OC(F)(F)F)cc23)c2ccc(Cl)cc2OC)cc(S(C)(=O)=O)c1 [MOSNODENVIR]
IC50 [1]: > 30000 nM | hepatocyte CLint [2]: < 1.9 µL/min/1e6 cells | logD [3]: > 4.1 | fraction unbound at 24 h, 5 µM [4]: 0.0014 | hepatocyte CLint [5]: 5.7 µL/min/1e6 cells | clearance [6]: 0.384 L/h/kg | AUC at 24 h [7]: 8.97 µg·h/mL | AUC at 24 h [8]: 2.94 µg·h/mL | EC50 [9]: 2 nM | bioavailability [10]: 108% | solubility thermodynamic at 24 h [11]: < 1 µg/mL | IC50 [12]: 7400 nM | EC50 [13]: 11 nM | Vd [14]: 3.1 L/kg | Vd [15]: 1.64 L/kg | Activity [16]: Non-Toxic | Activity [17]: Non-Toxic | AUC [18]: 15.4 µg·h/mL | Activity [19]: Non-Toxic | IC50 [20]: > 30000 nM | half-life [21]: 12.4 h | CC50 [22]: 2600 nM | LBF [23]: 5% | EC50 [24]: 0.057 nM | IC50 [25]: 10300 nM | LBF [26]: 4% | half-life [27]: 7.3 h
